Data reported in ChEMBL document CHEMBL1127249, “Design, structure activity and x-ray crystallographic studies of pseudosymmetrical nonpeptidyl HIV-1 protease inhibitors” (Bioorg Med Chem Lett, 1994).

Experiments:
[1] = biological target: Human immunodeficiency virus type 1 protease (Human immunodeficiency virus 1, UniProt Q72874); test: Compound was tested for inhibitory activity against recombinant HIV-1 protease using 125 I-SPA (scintillation proximity assay)
[2] = test system: Human immunodeficiency virus 1; test: Antiviral activity against HIV-1; assay type: functional, organism-based

O=C(N[C@H]1CCCC[C@@H]1NC(=O)[C@H](Cc1ccccc1)CC(O)C[C@@H](Cc1ccccc1)C(=O)N[C@H]1CCCC[C@@H]1NC(=O)c1ccccn1)c1ccccn1
IC50 [1]: 400 nM | IC50 [2]: > 20000 nM

O=C(N[C@H]1CCCC[C@@H]1NC(=O)[C@H](Cc1ccccc1)CC(O)C[C@@H](Cc1ccccc1)C(=O)N[C@H]1CCCC[C@@H]1NC(=O)c1ccncc1)c1ccncc1
IC50 [1]: 350 nM | IC50 [2]: > 20000 nM

CC(C)(C)OC(=O)N[C@H]1CCCC[C@@H]1NC(=O)[C@H](Cc1ccccc1)CC(O)C[C@@H](Cc1ccccc1)C(=O)N[C@H]1CCCC[C@@H]1NC(=O)OC(C)(C)C
IC50 [1]: > 10000 nM

O=C(N[C@H]1CCCC[C@@H]1NC(=O)[C@H](Cc1ccccc1)CC(O)C[C@@H](Cc1ccccc1)C(=O)N[C@H]1CCCC[C@@H]1NC(=O)c1cccnc1)c1cccnc1
IC50 [1]: 600 nM

O=C(N[C@H]1CCCC[C@@H]1NC(=O)[C@H](Cc1ccccc1)CC(O)C[C@@H](Cc1ccccc1)C(=O)N[C@H]1CCCC[C@@H]1NC(=O)c1ccc2ccccc2n1)c1ccc2ccccc2n1
IC50 [1]: 40 nM | IC50 [2]: 2000 nM

O=C(N[C@H]1CCCC[C@@H]1NC(=O)[C@H](Cc1ccccc1)CC(O)C[C@@H](Cc1ccccc1)C(=O)N[C@H]1CCCC[C@@H]1NC(=O)c1cc2ccccc2cn1)c1cc2ccccc2cn1
IC50 [1]: 45 nM

CC(=O)N[C@H]1CCCC[C@@H]1NC(=O)[C@H](Cc1ccccc1)CC(O)C[C@@H](Cc1ccccc1)C(=O)N[C@H]1CCCC[C@@H]1NC(C)=O
IC50 [1]: 3000 nM
